Results as given in ChEMBL document CHEMBL3885861, “Open TG-GATES”.
Values joined by “and” are separate entries in the source; they are usually repeats but may differ in a detail not shown here. Equal values may be shown once.

Organism: Rattus norvegicus
Assay: Open TG-GATES - Regimen: Single
Type: toxicity, organism-based, Sprague-Dawley
Set-up: regimen Single, gender Male, age 6 weeks
Conditions: in vivo, po, route gavage; for ALT / AST / BUN / CRE / Ca / Cl / GLC / IP / K / LDH / Na / PL / RALB / TC / TG / TP / A/G / ALP / DBIL / TBIL / gamma-GTP: tissue Plasma; for APTT / Bas / Eos / Fbg / Hb / Ht / Lym / MCH / MCHC / MCV / Mono / Neu / PT / Plat / RBC / Ret / WBC: tissue Blood; for KIDNEY_L / KIDNEY_R / KIDNEY_TOTAL: tissue Kidney; for LIVER: tissue Liver
[1] = 0 mg/kg, 24 h, dose level Control

## O=C1CN(/N=C/c2ccc([N+](=O)[O-])o2)C(=O)N1 [NITROFURANTOIN]
[1]
  ALT: 40.2 IU/L and 32.2 IU/L
  AST: 67 IU/L and 61.8 IU/L
  BUN: 15.6 mg/dL and 16 mg/dL
  CRE: 0.4 mg/dL
  Ca: 10.9 mg/dL and 11.3 mg/dL
  Cl: 101.4 meq/L and 105.8 meq/L
  GLC: 211.2 mg/dL and 198.2 mg/dL
  IP: 7.6 mg/dL and 9.2 mg/dL
  K: 4 meq/L and 4.4 meq/L
  LDH: 161.6 IU/L and 69.4 IU/L
  Na: 140 meq/L and 141 meq/L
  PL: 149.8 mg/dL and 148.2 mg/dL
  RALB: 3.2 g/dL and 3.9 g/dL
  TC: 76.4 mg/dL and 80.6 mg/dL
  TG: 110 mg/dL and 123 mg/dL
  TP: 5.6 g/dL and 5.5 g/dL
10 mg/kg, 3 h, dose level Low
  TERMINAL_BW: 221.7 g
  APTT: 20.2 s
  Bas: 0%
  Eos: 1.2%
  Fbg: 216.6 mg/dL
  Hb: 13.5 g/dL
  Ht: 38.5%
  Lym: 77%
  MCH: 21.5 pg
  MCHC: 35.1%
  MCV: 61.3 fL
  Mono: 3%
  Neu: 17.4%
  PT: 12.5 s
  Plat: 112.9 x10_4/uL
  RBC: 628.8 x10_4/ul
  Ret: 7.4%
  WBC: 88.6 x10_2/uL
  KIDNEY_L: 1 g
  KIDNEY_R: 1 g
  KIDNEY_TOTAL: 2 g
  LIVER: 10.3 g
  A/G: 1.6
  ALP: 999 IU/L
  ALT: 42.2 IU/L
  AST: 69.6 IU/L
  BUN: 12.2 mg/dL
  CRE: 0.3 mg/dL
  Ca: 10.8 mg/dL
  Cl: 101.8 meq/L
  DBIL: 0.076 mg/dL
  GLC: 194.8 mg/dL
  IP: 8.7 mg/dL
  K: 3.9 meq/L
  LDH: 198.6 IU/L
  Na: 141 meq/L
  PL: 141.2 mg/dL
  RALB: 3.3 g/dL
  TBIL: 0.1 mg/dL
  TC: 81 mg/dL
  TG: 67.4 mg/dL
  TP: 5.4 g/dL
  gamma-GTP: 0.8 IU/L
10 mg/kg, 6 h, dose level Low
  TERMINAL_BW: 217.9 g
  APTT: 19.4 s
  Bas: 0%
  Eos: 1%
  Fbg: 222.2 mg/dL
  Hb: 13.6 g/dL
  Ht: 38.4%
  Lym: 76.2%
  MCH: 21.6 pg
  MCHC: 35.3%
  MCV: 61 fL
  Mono: 2.8%
  Neu: 18.4%
  PT: 12.7 s
  Plat: 121.4 x10_4/uL
  RBC: 629.8 x10_4/ul
  Ret: 7.6%
  WBC: 96.2 x10_2/uL
  KIDNEY_L: 1 g
  KIDNEY_R: 1 g
  KIDNEY_TOTAL: 2 g
  LIVER: 9.9 g
  A/G: 1.7
  ALP: 930.6 IU/L
  ALT: 32 IU/L
  AST: 61 IU/L
  BUN: 11.4 mg/dL
  CRE: 0.4 mg/dL
  Ca: 10.7 mg/dL
  Cl: 102.8 meq/L
  DBIL: 0.088 mg/dL
  GLC: 194.2 mg/dL
  IP: 8.8 mg/dL
  K: 4.2 meq/L
  LDH: 175.8 IU/L
  Na: 140.6 meq/L
  PL: 140.8 mg/dL
  RALB: 3.5 g/dL
  TBIL: 0.1 mg/dL
  TC: 75 mg/dL
  TG: 77.6 mg/dL
  TP: 5.5 g/dL
  gamma-GTP: 0.6 IU/L
10 mg/kg, 9 h, dose level Low
  TERMINAL_BW: 215.9 g
  APTT: 18.5 s
  Bas: 0%
  Eos: 1%
  Fbg: 226.2 mg/dL
  Hb: 13.3 g/dL
  Ht: 37.5%
  Lym: 79.6%
  MCH: 21.9 pg
  MCHC: 35.5%
  MCV: 61.8 fL
  Mono: 2.6%
  Neu: 15.8%
  PT: 12.7 s
  Plat: 112.8 x10_4/uL
  RBC: 607 x10_4/ul
  Ret: 7.3%
  WBC: 86.5 x10_2/uL
  KIDNEY_L: 1 g
  KIDNEY_R: 1 g
  KIDNEY_TOTAL: 2 g
  LIVER: 9.4 g
  A/G: 1.6
  ALP: 712.8 IU/L
  ALT: 32.2 IU/L
  AST: 56.2 IU/L
  BUN: 10.2 mg/dL
  CRE: 0.3 mg/dL
  Ca: 10.4 mg/dL
  Cl: 103 meq/L
  DBIL: 0.068 mg/dL
  GLC: 197.2 mg/dL
  IP: 9.4 mg/dL
  K: 3.8 meq/L
  LDH: 205.2 IU/L
  Na: 140.6 meq/L
  PL: 140 mg/dL
  RALB: 3.4 g/dL
  TBIL: 0.1 mg/dL
  TC: 79.8 mg/dL
  TG: 51.2 mg/dL
  TP: 5.5 g/dL
  gamma-GTP: 0.6 IU/L
10 mg/kg, 24 h, dose level Low
  TERMINAL_BW: 233.4 g
  APTT: 18.6 s
  Bas: 0%
